# From US20220243210A1, “ANGIOTENSIN II TYPE 1 RECEPTOR TARGETED OLIGONUCLEOTIDES AND USES THEREOF” (Ionis Pharmaceuticals, Inc., priority 2019, published 2022)
# Experiments:
# mouse MALAT RNA = experiment: MALAT RNA reduction in vivo, C57BL6/J mice, multiple dose; conditions: for ED50: IV day 0, 4, 8
# Experimental: Compound Nos. 556089, 1229761, and 1229762 are described in Table 1 above. Compound Nos. 556089, 1229761, and 1229762 were tested in C57BL6/J mice. The mice were divided into groups of 4 mice each. […] The mice were then sacrificed on day 12. Heart, adipose, adrenal, kidney, and liver tissue was then collected and homogenized and RNA analysis was performed. A group of 4 mice received PBS as a negative control.
# RNA was extracted from heart, adipose, adrenal, kidney, and liver tissue for real-time PCR analysis of measurement of RNA expression of MALAT using primer probe set mMALAT1 #2 (forward sequence […] (SEQ ID NO: 5); reverse sequence […] (SEQ ID NO: 6); probe sequence […] (SEQ ID NO: 7)). Results are presented as percent change of RNA, relative to PBS control, normalized to mouse GAPDH.
# human MALAT1 RNA [1] = experiment: MALAT1 RNA reduction in HEK-AGTR1 FAP cells, free uptake, 24 hours; format: cell-based; conditions: for MALAT (% control): relative to untreated control cells
# Experimental: (§1) At the end of the treatment period, total RNA was isolated from the cells and MALAT1 RNA levels were measured by quantitative real-time PC&. […] MALAT1 RNA levels were normalized according to total RNA content, as measured by RIBOGREEN®. Reduction of MALAT1 RNA is presented Table 3 below as percent MALAT1 RNA amount relative to untreated control (UTC) cells. The half maximal inhibitory concentration (IC50) of each modified oligonucleotide was calculated using a non-linear fit [inhibitor] vs. response—variable slope (four parameters) formula in GraphPad Prism 7.01.
# HEK-APLNR FAP cells = experiment: IP1 accumulation negative control in HEK-APLNR FAP cells (do not express AGTR1); format: cell-based, human; conditions: 24 hours
# Experimental: (§2) Activated AGTR1 couples to the Gαq subunit of heterotrimeric G proteins, which activates the phospholipase C (PLC) and subsequently inositol 1,4,5-trisphosphate (IP3) signaling cascade. AGTR1 signaling was measured using an IP-One Gq kit (cisbio #62IPAPEB). The kit detects the accumulation of inositol monophosphate (IP1), a stable downstream metabolite of IP3 induced by activation of a phospholipase C (PLC) cascade.
# As a negative control, Compound Nos. 556089 and 1229761 were also tested in HEK293 cells expressing FAP tagged human Apelin receptor (HEK-APLNR FAP cells from Spectragenetics). […] HEK-APLNR FAP cells were cultured with Compound Nos. 556089 and 1229761, described herein above, at the concentrations detailed in Table 2 for 24 hours.
# human MALAT1 RNA [2] = experiment: MALAT1 RNA reduction in HEK-AGTR1 FAP cells, free uptake, 48 hours; format: cell-based; conditions: for MALAT (% control): relative to untreated control cells
# Experimental: as §1, with “PCR.” for “PC&.”, “Reduction of MALAT1 RNA is presented Table 3 below as percent MALAT1 RNA amount relative to untreated control (UTC) cells.” left out, “response-variable” for “response—variable”, “(three” for “(four”
# human AGTR1 = molecular target: T1, human AGTR1 (Homo sapiens, UniProt P30556); experiment: AGTR1 signaling, IP-One Gq kit (IP1 accumulation), HEK-AGTR1 FAP cells; format: cell-based; conditions: 90 minutes
# T1 construct: host or cells: HEK293 (HEK-AGTR1 FAP cells)
# T1 sequence (P30556 1-359): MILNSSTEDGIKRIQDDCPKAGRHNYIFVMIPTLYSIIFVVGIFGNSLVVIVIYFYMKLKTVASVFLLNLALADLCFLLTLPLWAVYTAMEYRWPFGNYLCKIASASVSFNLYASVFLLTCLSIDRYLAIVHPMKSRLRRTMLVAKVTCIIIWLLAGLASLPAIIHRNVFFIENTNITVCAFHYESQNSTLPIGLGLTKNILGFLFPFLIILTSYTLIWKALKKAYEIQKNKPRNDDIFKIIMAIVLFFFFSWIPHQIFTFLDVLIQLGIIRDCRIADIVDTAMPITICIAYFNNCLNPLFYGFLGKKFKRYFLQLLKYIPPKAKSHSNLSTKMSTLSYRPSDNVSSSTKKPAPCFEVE
# Experimental: as §2
# An additional control compound, AngII, which consists of the peptide motif […], was also tested. […] AGTR1 activation was measured using the IP-One Gq kit.
substance,measurement,setting,value
Compound No. 1229761: Angiotensin II peptide [N6-(2-azidoacetyl)-K]DRVYIHPF conjugated via linker to 5′-end of MALAT1 modified oligonucleotide TCAGCATTCTAATAGCAGC,MALAT-1 RNA (% control),"mouse MALAT RNA; Adipose, 0.4 μmol/kg IV day 0, 4, 8, sacrifice day 12, relative to PBS",66.2 % control
same,MALAT-1 RNA (% control),"mouse MALAT RNA; Adipose, 1.2 μmol/kg IV day 0, 4, 8, sacrifice day 12, relative to PBS",33.0 % control
same,MALAT-1 RNA (% control),"mouse MALAT RNA; Adipose, 3.6 μmol/kg IV day 0, 4, 8, sacrifice day 12, relative to PBS",15.5 % control
same,ED50,mouse MALAT RNA; Adipose,0.1 µmol/kg
same,MALAT-1 RNA (% control),"mouse MALAT RNA; Adrenal, 0.4 μmol/kg IV day 0, 4, 8, sacrifice day 12, relative to PBS",90.3 % control
same,MALAT-1 RNA (% control),"mouse MALAT RNA; Adrenal, 1.2 μmol/kg IV day 0, 4, 8, sacrifice day 12, relative to PBS",59.7 % control
same,MALAT-1 RNA (% control),"mouse MALAT RNA; Adrenal, 3.6 μmol/kg IV day 0, 4, 8, sacrifice day 12, relative to PBS",41.5 % control
same,ED50,mouse MALAT RNA; Adrenal,1.091 µmol/kg
same,MALAT-1 RNA (% control),"mouse MALAT RNA; Heart, 0.4 μmol/kg IV day 0, 4, 8, sacrifice day 12, relative to PBS",82.3 % control
same,MALAT-1 RNA (% control),"mouse MALAT RNA; Heart, 1.2 μmol/kg IV day 0, 4, 8, sacrifice day 12, relative to PBS",68.7 % control
same,MALAT-1 RNA (% control),"mouse MALAT RNA; Heart, 3.6 μmol/kg IV day 0, 4, 8, sacrifice day 12, relative to PBS",31.7 % control
same,ED50,mouse MALAT RNA; Heart,2.686 µmol/kg
same,MALAT-1 RNA (% control),"mouse MALAT RNA; Kidney, 0.4 μmol/kg IV day 0, 4, 8, sacrifice day 12, relative to PBS",53.8 % control
same,MALAT-1 RNA (% control),"mouse MALAT RNA; Kidney, 1.2 μmol/kg IV day 0, 4, 8, sacrifice day 12, relative to PBS",39.6 % control
same,MALAT-1 RNA (% control),"mouse MALAT RNA; Kidney, 3.6 μmol/kg IV day 0, 4, 8, sacrifice day 12, relative to PBS",21.4 % control
same,ED50,mouse MALAT RNA; Kidney,1.88 µmol/kg
same,MALAT-1 RNA (% control),"mouse MALAT RNA; Liver, 0.4 μmol/kg IV day 0, 4, 8, sacrifice day 12, relative to PBS",34.7 % control
same,MALAT-1 RNA (% control),"mouse MALAT RNA; Liver, 1.2 μmol/kg IV day 0, 4, 8, sacrifice day 12, relative to PBS",12 % control
same,MALAT-1 RNA (% control),"mouse MALAT RNA; Liver, 3.6 μmol/kg IV day 0, 4, 8, sacrifice day 12, relative to PBS",5.7 % control
same,ED50,mouse MALAT RNA; Liver,0.063 µmol/kg
same,MALAT (% control),"human MALAT1 RNA [1]; 12 nM, 24 hours",126 % control
same,MALAT (% control),"human MALAT1 RNA [1]; 111 nM, 24 hours",76 % control
same,MALAT (% control),"human MALAT1 RNA [1]; 333 nM, 24 hours",63 % control
same,MALAT (% control),"human MALAT1 RNA [1]; 1000 nM, 24 hours",67 % control
same,MALAT (% control),"human MALAT1 RNA [1]; 3000 nM, 24 hours",36 % control
same,MALAT (% control),"human MALAT1 RNA [1]; 9000 nM, 24 hours",33 % control
same,IC50,"human MALAT1 RNA [1]; MALAT1 RNA, 24 hours, four parameter fit",182 nM
same,reduction of target RNA in words,"human MALAT1 RNA [1]; compared to parent unconjugated Compound No. 556089, 24 hours",significantly greater reduction of target RNA
same,IP1 accumulation,HEK-APLNR FAP cells; 0.0256 nM,590 nM
same,IP1 accumulation,HEK-APLNR FAP cells; 0.128 nM,477 nM
same,IP1 accumulation,HEK-APLNR FAP cells; 0.64 nM,564 nM
same,IP1 accumulation,HEK-APLNR FAP cells; 3.2 nM,510 nM
same,IP1 accumulation,HEK-APLNR FAP cells; 16 nM,505 nM
same,IP1 accumulation,HEK-APLNR FAP cells; 80 nM,492 nM
same,IP1 accumulation,HEK-APLNR FAP cells; 400 nM,425 nM
same,IP1 accumulation,HEK-APLNR FAP cells; 2000 nM,472 nM
same,MALAT (% control),"human MALAT1 RNA [2]; 2.7 nM, 48 hours",94 % control
same,MALAT (% control),"human MALAT1 RNA [2]; 8.2 nM, 48 hours",98 % control
same,MALAT (% control),"human MALAT1 RNA [2]; 24.7 nM, 48 hours",92 % control
same,MALAT (% control),"human MALAT1 RNA [2]; 74.1 nM, 48 hours",85 % control
same,MALAT (% control),"human MALAT1 RNA [2]; 222.2 nM, 48 hours",53 % control
same,MALAT (% control),"human MALAT1 RNA [2]; 666.7 nM, 48 hours",26 % control
same,MALAT (% control),"human MALAT1 RNA [2]; 2000 nM, 48 hours",18 % control
same,MALAT (% control),"human MALAT1 RNA [2]; 6000 nM, 48 hours",16 % control
same,MALAT (% control),"human MALAT1 RNA [2]; .10 nM, 48 hours",85 % control
same,MALAT (% control),"human MALAT1 RNA [2]; .3 nM, 48 hours",99 % control
same,MALAT (% control),"human MALAT1 RNA [2]; .9 nM, 48 hours",91 % control
same,IC50,"human MALAT1 RNA [2]; MALAT1 RNA, 48 hours, three parameter fit",290 nM
same,reduction of target RNA in words,"human MALAT1 RNA [2]; compared to parent unconjugated Compound No. 556089, 48 hours",significantly greater reduction of target RNA
AngII,IP1 accumulation,human AGTR1; 0.0256 nM,1.183 µM
same,IP1 accumulation,human AGTR1; 0.128 nM,2.569 µM
same,IP1 accumulation,human AGTR1; 0.64 nM,1.71 µM
same,IP1 accumulation,human AGTR1; 3.2 nM,4.465 µM
same,IP1 accumulation,human AGTR1; 16 nM,8.913 µM
same,IP1 accumulation,human AGTR1; 80 nM,15.383 µM
same,IP1 accumulation,human AGTR1; 400 nM,13.89 µM
same,IP1 accumulation,human AGTR1; 2000 nM,14.825 µM
